Results as given in patent US20230085307A1, “PYRIDAZINONE COMPOUND AND HERBICIDE” (NISSAN CHEMICAL CORPORATION, priority 2019, published 2023).

Assays:
Italian ryegrass [1] = experiment: Test Example 4: herbicidal effect by soil treatment (Table 19, symbol K); assay type: in vivo, Italian ryegrass (Lolium multiflorum); conditions: amount of applied herbicide 320 g/ha
Procedure, shortened: (§1)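 Seeds were sown in sterilized diluvial soil and covered with about 1.5 cm of soil. An emulsion formulation diluted with water to a predetermined herbicide amount was sprayed evenly onto the soil surface. Plants grew in a greenhouse at 25° C. to 30° C., and the effect was scored three weeks after application using criteria from an earlier test.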

barnyard grass = experiment: Test Example 5: herbicidal effect by foliage application, plastic box (Table 20, symbol H); assay type: in vivo, barnyard grass (Echinochloa crus-galli); conditions: foliage application, 320 g/ha, evaluated three weeks after application
Procedure, shortened: (§2)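 Plants sown in sterilized diluvial soil and grown 14 days in a greenhouse at 25° C to 30° C, then sprayed on the foliage with the compound's emulsion diluted in water to a predetermined herbicide amount. Injury to weeds and crops scored three weeks after application on a visual rating scale.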

chickweed = experiment: Test Example 4: herbicidal effect by soil treatment (Table 19, symbol P); assay type: in vivo, common chickweed (Stellaria media); conditions: amount of applied herbicide 320 g/ha
Procedure, shortened: as §1

green foxtail = experiment: Test Example 4: herbicidal effect by soil treatment (Table 19, symbol G); assay type: in vivo, green foxtail (Setaria viridis); conditions: amount of applied herbicide 320 g/ha
Procedure, shortened: as §1

redroot pigweed [2] = experiment: Test Example 4: herbicidal effect by soil treatment (Table 19, symbol N); assay type: in vivo, redroot pigweed (Amaranthus retroflexus); conditions: amount of applied herbicide 320 g/ha
Procedure, shortened: as §1

southern crabgrass [3] = experiment: Test Example 4: herbicidal effect by soil treatment (Table 19, symbol F); assay type: in vivo, southern crabgrass (Digitaria ciliaris); conditions: amount of applied herbicide 320 g/ha
Procedure, shortened: as §1

Japanese bulrush = experiment: Test Example 2: herbicidal activity, application during weed generation under submerged conditions (Table 17, symbol B); assay type: in vivo, Japanese bulrush (Schoenoplectus juncoides); conditions: AAH 320 g/ha; application during weed generation, submerged conditions
Procedure, shortened: (§3)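 3-wk visual-criteria score after one water-surface dose. Emulsion formulation, water-diluted to set rate; applied at 1–2 leaf stage; alluvial soil, 4 cm standing water; seeds co-sown; greenhouse 25–30° C.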

Italian ryegrass [4] = experiment: Test Example 5: herbicidal effect by foliage application, plastic box (Table 20, symbol K); assay type: in vivo, Italian ryegrass (Lolium multiflorum); conditions: foliage application, 320 g/ha, evaluated three weeks after application
Procedure, shortened: as §2

late watergrass = experiment: Test Example 1: herbicidal activity, application before weed generation under submerged conditions (Table 16, symbol A); assay type: in vivo, late watergrass (Echinochloa oryzicola); conditions: 320 g/ha applied herbicide
Procedure, shortened: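 Emulsion formulation, water-diluted to set dose, was put onto the flooded surface (4 cm depth, alluvial soil) the same day weeds were sown and 2.5-leaf rice transplanted. After 3 weeks at 25-30 °C under glass, each species was rated 0 (≤5% kill) to 5 (≥90% kill).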

lambsquarters = experiment: Test Example 5: herbicidal effect by foliage application, plastic box (Table 20, symbol O); assay type: in vivo, lambsquarters (Chenopodium album); conditions: foliage application, 320 g/ha, evaluated three weeks after application
Procedure, shortened: as §2

persian speedwell [5] = experiment: Test Example 5: herbicidal effect by foliage application, plastic box (Table 20, symbol R); assay type: in vivo, Persian speedwell (Veronica persica); conditions: foliage application, 320 g/ha, evaluated three weeks after application
Procedure, shortened: as §2

redroot pigweed [6] = experiment: Test Example 5: herbicidal effect by foliage application, plastic box (Table 20, symbol N); assay type: in vivo, redroot pigweed (Amaranthus retroflexus); conditions: foliage application, 320 g/ha, evaluated three weeks after application
Procedure, shortened: as §2

blackgrass = experiment: Test Example 4: herbicidal effect by soil treatment (Table 19, symbol J); assay type: in vivo, blackgrass (Alopecurus myosuroides); conditions: amount of applied herbicide 320 g/ha
Procedure, shortened: as §1

southern crabgrass [7] = experiment: Test Example 5: herbicidal effect by foliage application, plastic box (Table 20, symbol F); assay type: in vivo, southern crabgrass (Digitaria ciliaris); conditions: foliage application, 320 g/ha, evaluated three weeks after application
Procedure, shortened: as §2

oval-leafed pondweed = experiment: Test Example 2: herbicidal activity, application during weed generation under submerged conditions (Table 17, symbol C); assay type: in vivo, oval-leafed pondweed (Monochoria vaginalis); conditions: AAH 320 g/ha; application during weed generation, submerged conditions
Procedure, shortened: as §3

persian speedwell [8] = experiment: Test Example 4: herbicidal effect by soil treatment (Table 19, symbol R); assay type: in vivo, Persian speedwell (Veronica persica); conditions: amount of applied herbicide 320 g/ha
Procedure, shortened: as §1

| SMILES | K: Italian ryegrass, herbicidal effect rating (Italian ryegrass [1]) | herbicidal effect on H: barnyard grass (criteria 0-5) (barnyard grass) | P: chickweed, herbicidal effect rating (chickweed) | G: green foxtail, herbicidal effect rating (green foxtail) | N: redroot pigweed, herbicidal effect rating (redroot pigweed [2]) | F: southern crabgrass, herbicidal effect rating (southern crabgrass [3]) | herbicidal effect rating, B: Japanese bulrush (Japanese bulrush) | herbicidal effect on K: Italian ryegrass (criteria 0-5) (Italian ryegrass [4]) | Herbicidal effect on A: late watergrass (grade 0-5) (late watergrass) | herbicidal effect on O: lambsquarters (criteria 0-5) (lambsquarters) | herbicidal effect on R: persian speedwell (criteria 0-5) (persian speedwell [5]) | herbicidal effect on N: redroot pigweed (criteria 0-5) (redroot pigweed [6]) | J: blackgrass, herbicidal effect rating (blackgrass) | herbicidal effect on F: southern crabgrass (criteria 0-5) (southern crabgrass [7]) | herbicidal effect rating, C: oval-leafed pondweed (oval-leafed pondweed) | R: persian speedwell, herbicidal effect rating (persian speedwell [8]) |
| --- | --- | --- | --- | --- | --- | --- | --- | --- | --- | --- | --- | --- | --- | --- | --- | --- |
| CCCC(=O)Oc1c(C)nn(C)c(=O)c1-c1c(-c2ccccc2)sc2ccc(F)cc12 [2-198] | 4 (Herbicidal rate of 70% or more and less than 90%) | 3 (Herbicidal rate of 40% or more and less than 70%) | 4 (Herbicidal rate of 70% or more and less than 90%) | 5 (Herbicidal rate of 90% or more (almost completely withered)) | 5 (Herbicidal rate of 90% or more (almost completely withered)) | 5 (Herbicidal rate of 90% or more (almost completely withered)) | 3 (Herbicidal rate of 40% or more and less than 70%) | 5 (Herbicidal rate of 90% or more (almost completely withered)) | 5 (Herbicidal rate of 90% or more (almost completely withered)) | 5 (Herbicidal rate of 90% or more (almost completely withered)) | 5 (Herbicidal rate of 90% or more (almost completely withered)) | 5 (Herbicidal rate of 90% or more (almost completely withered)) | 4 (Herbicidal rate of 70% or more and less than 90%) | 5 (Herbicidal rate of 90% or more (almost completely withered)) | 4 (Herbicidal rate of 70% or more and less than 90%) | 4 (Herbicidal rate of 70% or more and less than 90%) |
| Cc1nn(C)c(=O)c(-c2c(-c3ccccc3F)sc3ccc(F)cc23)c1O [2-199] | 3 (Herbicidal rate of 40% or more and less than 70%) | 3 (Herbicidal rate of 40% or more and less than 70%) | 2 (Herbicidal rate of 20% or more and less than 40%) | 4 (Herbicidal rate of 70% or more and less than 90%) | 4 (Herbicidal rate of 70% or more and less than 90%) | 2 (Herbicidal rate of 20% or more and less than 40%) | 2 (Herbicidal rate of 20% or more and less than 40%) | 4 (Herbicidal rate of 70% or more and less than 90%) | 1 (Herbicidal rate of 5% or more and less than 20%) | 5 (Herbicidal rate of 90% or more (almost completely withered)) | 5 (Herbicidal rate of 90% or more (almost completely withered)) | 5 (Herbicidal rate of 90% or more (almost completely withered)) | 0 (Herbicidal rate of 5% or less (almost no effect)) | 4 (Herbicidal rate of 70% or more and less than 90%) | 0 (Herbicidal rate of 5% or less (almost no effect)) | 0 (Herbicidal rate of 5% or less (almost no effect)) |
| Cc1nn(C)c(=O)c(-c2c(-c3ccc(Br)cc3)sc3ccc(F)cc23)c1O [2-205] | 5 (Herbicidal rate of 90% or more (almost completely withered)) | 5 (Herbicidal rate of 90% or more (almost completely withered)) | 3 (Herbicidal rate of 40% or more and less than 70%) | 5 (Herbicidal rate of 90% or more (almost completely withered)) | 5 (Herbicidal rate of 90% or more (almost completely withered)) | 5 (Herbicidal rate of 90% or more (almost completely withered)) | 3 (Herbicidal rate of 40% or more and less than 70%) | 5 (Herbicidal rate of 90% or more (almost completely withered)) | 4 (Herbicidal rate of 70% or more and less than 90%) | 5 (Herbicidal rate of 90% or more (almost completely withered)) | 5 (Herbicidal rate of 90% or more (almost completely withered)) | 5 (Herbicidal rate of 90% or more (almost completely withered)) | 0 (Herbicidal rate of 5% or less (almost no effect)) | 5 (Herbicidal rate of 90% or more (almost completely withered)) | 2 (Herbicidal rate of 20% or more and less than 40%) | 5 (Herbicidal rate of 90% or more (almost completely withered)) |
| CCCC(=O)Oc1c(C)nn(C)c(=O)c1-c1c(-c2ccc(Br)cc2)sc2ccc(F)cc12 [2-206] | 5 (Herbicidal rate of 90% or more (almost completely withered)) | 5 (Herbicidal rate of 90% or more (almost completely withered)) | 4 (Herbicidal rate of 70% or more and less than 90%) | 3 (Herbicidal rate of 40% or more and less than 70%) | 5 (Herbicidal rate of 90% or more (almost completely withered)) | 1 (Herbicidal rate of 5% or more and less than 20%) | 3 (Herbicidal rate of 40% or more and less than 70%) | 5 (Herbicidal rate of 90% or more (almost completely withered)) | 5 (Herbicidal rate of 90% or more (almost completely withered)) | 5 (Herbicidal rate of 90% or more (almost completely withered)) | 5 (Herbicidal rate of 90% or more (almost completely withered)) | 5 (Herbicidal rate of 90% or more (almost completely withered)) | 0 (Herbicidal rate of 5% or less (almost no effect)) | 3 (Herbicidal rate of 40% or more and less than 70%) | 4 (Herbicidal rate of 70% or more and less than 90%) | 5 (Herbicidal rate of 90% or more (almost completely withered)) |
| CCc1ccc(-c2sc3ccc(F)cc3c2-c2c(O)c(C)nn(C)c2=O)cc1 [2-207] | 4 (Herbicidal rate of 70% or more and less than 90%) | 4 (Herbicidal rate of 70% or more and less than 90%) | 3 (Herbicidal rate of 40% or more and less than 70%) | 0 (Herbicidal rate of 5% or less (almost no effect)) | 5 (Herbicidal rate of 90% or more (almost completely withered)) | 3 (Herbicidal rate of 40% or more and less than 70%) | 3 (Herbicidal rate of 40% or more and less than 70%) | 4 (Herbicidal rate of 70% or more and less than 90%) | 2 (Herbicidal rate of 20% or more and less than 40%) | 5 (Herbicidal rate of 90% or more (almost completely withered)) | 5 (Herbicidal rate of 90% or more (almost completely withered)) | 5 (Herbicidal rate of 90% or more (almost completely withered)) | 0 (Herbicidal rate of 5% or less (almost no effect)) | 4 (Herbicidal rate of 70% or more and less than 90%) | 1 (Herbicidal rate of 5% or more and less than 20%) | 5 (Herbicidal rate of 90% or more (almost completely withered)) |
